{"source": "patent US20220079912A1", "about": "“ANTICANCER FORMULATION” (University of Mississippi, priority 2018, published 2022)", "key": {"ARRDC4 mRNA": {"tested_on": "ARRDC4 mRNA", "test": "Differential gene expression analysis (RNA-Seq) in T98G cells", "format": "cell-based, human", "settings": "2 hours, GH 8 μM, 2-DG 25 mM, Ph 100, minus = reduced, plus = increase, NC = no change", "description": "(§1) GH inhibits expression of TXNIP and ARRDC4 mRNAs. […] Since the transcription factors (MondoA/Mlx complex) regulating the expression of the TXNIP gene is thought to be controlled by intermediates in the upper portion of the glycolytic pathway (12), GH may be negatively impacting this portion of glycolysis. Reduction in the levels of these intermediates by GH would prevent activation of the MondoA/Mlx transcription complex and would result in suppression of TXNIP transcription and TXNIP mRNA levels. Both of these gene products (TXNIP and ARRDC4) are thought to suppress glucose transport by enhancing degradation of glucose transporters (12)."}, "TXNIP mRNA": {"tested_on": "TXNIP mRNA", "test": "Differential gene expression analysis (RNA-Seq) in T98G cells", "format": "cell-based, human", "settings": "2 hours, GH 8 μM, 2-DG 25 mM, Ph 100, minus = reduced, plus = increase, NC = no change", "description": "as §1"}, "Colo320DM colon cancer": {"tested_on": "Colo320DM colon cancer", "test": "Colony formation assay, combination with DHEA", "format": "cell-based, human", "settings": "24 h, FIG. 20"}, "T98G cells [1]": {"tested_on": "T98G cells", "test": "Combination cytotoxicity with mitochondrial complex I inhibitors (% cell survival)", "description": "Example 2: Gnetin H In Combination with Mitochondrial Complex I Inhibitors. […] The plus signs above the combination treatment bars indicates the value of % cell survival if the anti-proliferative effect was additive.\nIn FIGS. 9 A-B., the plus signs are placed above the combination treatment bars at the % cell survival value if the anti-proliferative effect was additive. […] Both T98G and MDA-MB-231 cells lack functional p53 but B16 are p53 wild type.\nExample 4: Peony Seed extract. […] T98G cells were treated with different concentrations of purified GH (numbers indicate μM) or PSE (numbers indicate μg/ml) alone or in combination with a Paw Paw (PP) extract (2 μg/ml) for 48 hrs (FIG. 12 A). The plus signs are placed above the combination treatment bars at the % cell survival value if the anti-proliferative effect was additive. […] T98G cells were treated with different concentrations of purified GH or PSE in combination with a Paw Paw extract (2 μg/ml) for 48 hrs (FIG. 12 B)."}, "[2]": {"tested_on": "T98G human glioblastoma cells", "test": "Lactic acid accumulation in cell culture medium", "format": "cell-based", "settings": "FIG. 2B", "text": "Acidification of the cell culture medium occurs because of the enhanced use of glycolysis by transformed cells (and resulting increase in lactic acid production). This led us to investigate whether GH reduced lactic acid levels in the cell culture medium."}, "TXNIP protein levels": {"tested_on": "TXNIP protein levels", "test": "Western blot of TXNIP protein, MDA-MB-231 cell line", "format": "cell-based, human", "settings": "FIG. 16, FIG. 18", "description": "AMPK activation has been previously shown to phosphorylate and cause the degradation of TXNIP during energy stress (13)."}, "[3]": {"tested_on": "MDA-MB-231 human breast cancer cells", "test": "Cell proliferation / cell survival", "format": "cell-based", "settings": "MDA-MB-231, varying concentrations, 48 hours, dose dependent, FIG. 1", "description": "(§2) Example 1: trans-Gnetin H (GH)—Trans-Gnetin H inhibits cell proliferation. […] B16 mouse melanoma cells, T98G glioblastoma cells, and MDA-MB-231 human breast cancer cells were treated with varying concentrations of GH for 48 hours with cell survival measured. The B16 mouse melanoma cell line was the most sensitive to the anti-proliferative action of GH, perhaps due to the highly glycolytic nature of these cells and/or that they contain wild type p53."}, "B16 mouse melanoma cells": {"tested_on": "B16 mouse melanoma cells", "test": "Cell proliferation / cell survival", "format": "cell-based", "settings": "B16, varying concentrations, 48 hours, dose dependent, FIG. 1", "description": "as §2"}, "T98G cells [4]": {"tested_on": "T98G cells", "test": "Apoptosis, annexin V/propidium iodide (PI) staining", "format": "cell-based, human", "settings": "FIG. 10", "description": "This additional target remains to be identified."}}, "data": [{"smiles": "Oc1ccc(/C=C/c2c3c(cc4c2[C@H](c2cc(O)cc(O)c2)[C@@H](c2ccc(O)cc2)O4)O[C@H](c2ccc(O)cc2)[C@H]3c2cc(O)cc(O)c2)cc1", "note": "(relative stereo) [GH, trans-Gnetin H]", "values": [{"measurement": "ARRDC4 mRNA fold change", "setting": "ARRDC4 mRNA", "value": "−6", "unit": "fold"}, {"measurement": "TXNIP mRNA fold change", "setting": "TXNIP mRNA", "value": "−88", "unit": "fold"}, {"measurement": "cytotoxicity in combination with DHEA (cell staining)", "setting": "Colo320DM colon cancer", "value": "cytotoxic"}, {"measurement": "synergistic cytotoxicity in combination with Paw Paw (PP) extract (2 μg/ml)", "setting": "T98G cells [1]", "value": "exhibited synergistic cytotoxicity"}, {"measurement": "synergistic cytotoxicity in combination with acetogenins (PP) at 1 μg/ml", "setting": "T98G cells [1]", "value": "synergistically cytotoxic"}, {"measurement": "IC50 in combination with PP", "setting": "T98G cells [1]; T98G, Paw Paw extract 2 μg/ml, 48 hrs, FIG. 12 B", "value": 1.3, "unit": "µg/mL"}, {"measurement": "lactic acid production", "setting": "[2]", "value": "inhibits lactic acid production"}, {"measurement": "TXNIP protein levels, in combination with Ph", "setting": "TXNIP protein levels", "value": "reduction of TXNIP protein levels"}, {"measurement": "TXNIP protein levels, agent alone", "setting": "TXNIP protein levels; GH 8 μM 6 hrs or 3 hrs, 2-DG 25 mM, OXA 25 mM, BPX 25 μM, DCA 25 mM, 6 hr", "value": "dramatic reduction in the levels of TXNIP protein"}, {"measurement": "inhibition of cell proliferation (cell survival)", "setting": "[3]", "value": "inhibits the proliferation"}, {"measurement": "inhibition of cell proliferation (cell survival)", "setting": "B16 mouse melanoma cells", "value": "inhibits the proliferation"}, {"measurement": "induction of apoptosis in combination with Paw Paw extract (PP)", "setting": "T98G cells [4]", "value": "extensive induction of apoptosis"}, {"measurement": "induction of apoptosis in combination with phenformin (Ph)", "setting": "T98G cells [4]", "value": "extensive induction of apoptosis"}]}]}
